pEC50: −log10 of the molar value.
Legend:
[1] = tested on: Pancreatic; conditions: read-out: EC50 of chemo SOC; cited from earlier work
[2] = tested on: SKOV-3; test: High Throughput Screen for growth inhibition, SKOV-3; type: cell-based; conditions: SKOV-3, Ovarian; 3 days; unit not given
Method: (§1) The High Throughput Screen method is described below. The endpoint readout of this assay is based upon quantitation of ATP as an indicator of viable cells.
(§2) Cell lines that have been preserved in liquid nitrogen are thawed and expanded in growth media (see Table 1-3). Once cells have reached expected doubling times, screening begins. Cells are seeded in growth media in black 384-well tissue culture treated plates at 500-1500 cells per well (as noted in Analyzer). Cells are equilibrated in assay plates via centrifugation and placed at 37° C. 5% CO2 for twenty-four hours before treatment. […] Assay plates are incubated with compound for 3 days and are then analysed using CellTiter-Glo 2.0. All data points are collected via automated processes and are subject to quality control and analysed using Horizon's software.
(§3) Growth Inhibition (GI) is utilized as a measure of cell growth. The GI percentages are calculated by applying the following test and equation: If T<V_0: 100*(1−(T−V_0)/V_0) If T≥V_0: 100*(1−(T−V_0)/(V−V_0)) where T is the signal measure for a test article, V is the untreated/vehicle-treated control measure, and Vo is the untreated/vehicle control measure at time zero (also colloquially referred as T0 plates). This formula is derived from the Growth Inhibition calculation used in the National Cancer Institute's NCI-60 high throughput screen. […]

[3] = tested on: Panc 04 03; test: High Throughput Screen for growth inhibition, Panc 04 03; type: cell-based; conditions: Panc 04 03, Pancreatic; 3 days; unit not given
Method: as §1, §2, §3

[4] = tested on: BICR16; test: High Throughput Screen for growth inhibition, BICR16; type: cell-based; conditions: BICR16, Head and Neck; 3 days; unit not given
Method: as §1, §2
(§4) Growth Inhibition (GI) is utilized as a measure of cell growth. The GI percentages are calculated by applying the following test and equation: If T<V_0: 100*(1−(T−V_0)/V_0) If T≥V_0: 100*(1−(T−V_0)/(V−V_0)) where T is the signal measure for a test article, V is the untreated/vehicle-treated control measure, and Vo is the untreated/vehicle control measure at time zero (also colloquially referred as T0 plates). This formula is derived from the Growth Inhibition calculation used in the National Cancer Institute's NCI-60 high throughput screen. For the purposes of this report, all data analysis was performed in Growth Inhibition (except where noted).
(§5) A GI of 100% represents complete growth inhibition (cytostasis) and in this case cells treated with compound for 3 days would have the same endpoint reading as TO control cells. A GI of 200% represents complete death (cytotoxicity) of all cells in the culture well and in this case the T reading at 3 days will be lower than the TO control (values near or at zero).
(§6) Horizon also provides Inhibition as a measure of cell viability. Inhibition levels of 0% represent no inhibition of cell growth by treatment. […] Inhibition percentage is calculated as the following: I=1−T/U where T is the treated and U is the untreated/vehicle control.

[5] = tested on: MC-F7; test: High Throughput Screen for growth inhibition, MC-F7 (MCF7); type: cell-based; conditions: MC-F7, Breast (luminal); 3 days; unit not given
Method: as §1, §2, §3

[6] = tested on: Ishikawa; test: High Throughput Screen for growth inhibition, Ishikawa; type: cell-based; conditions: Endometrial (uterine), 3 days, unit not given
Method: as §1, §2, §3

[7] = tested on: NCI-H520; test: High Throughput Screen for growth inhibition, NCI-H520; type: cell-based; conditions: NCI-H520, LUSC; 3 days; unit not given
Method: as §1, §2, §3

[8] = tested on: AGS; test: High Throughput Screen for growth inhibition, AGS; type: cell-based; conditions: Gastric, 3 days, unit not given
Method: as §1, §2, §4, §5
(§7) Horizon also provides Inhibition as a measure of cell viability. Inhibition levels of 0% represent no inhibition of cell growth by treatment. Inhibition of 100% represents no doubling of cell numbers during the treatment window. Both cytostatic and cytotoxic treatments can yield an Inhibition percentage of 100%. Inhibition percentage is calculated as the following: I=1−T/U where T is the treated and U is the untreated/vehicle control.

[9] = tested on: LUDLU-1; test: High Throughput Screen for growth inhibition, LUDLU-1; type: cell-based; conditions: LUDLU-1, LUSC; 3 days; unit not given
Method: as §1, §2, §4, §5, §6

[10] = tested on: MV4-11; test: High Throughput Screen for growth inhibition (CellTiter-Glo 2.0), MV4-11; type: cell-based; conditions: MV4-11, Leukemia; 3 days with compound; unit not given
Method: as §1, §2, §3

[11] = tested on: SW480; test: High Throughput Screen for growth inhibition, SW480; type: cell-based; conditions: SW480, Colon; 3 days; unit not given
Method: as §1, §2, §3

[12] = tested on: HCT-116; test: High Throughput Screen for growth inhibition, HCT-116; type: cell-based; conditions: HCT-116, Colon; 3 days; unit not given
Method: as §1, §2, §3

[13] = tested on: MOLT-4; test: High Throughput Screen for growth inhibition, MOLT-4; type: cell-based; conditions: MOLT-4, Leukemia; 3 days; unit not given
Method: as §1, §2, §4, §5, §7

[14] = tested on: Kasumi-1; test: High Throughput Screen for growth inhibition, Kasumi-1; type: cell-based; conditions: Kasumi-1, Leukemia; 3 days; unit not given
Method: as §1, §2, §3

[15] = tested on: SUM159PT; test: High Throughput Screen for growth inhibition, SUM159PT; type: cell-based; conditions: Breast, 3 days, unit not given
Method: as §1, §2, §3

[16] = tested on: A549; test: High Throughput Screen for growth inhibition, A549; type: cell-based; conditions: A549, lung adenocarcinoma; 3 days; unit not given
Method: as §1, §2, §3

[17] = tested on: HEC-50B; test: High Throughput Screen for growth inhibition, HEC-50B; type: cell-based; conditions: Endometrial (uterine), 3 days, unit not given
Method: as §1, §2, §3

[18] = tested on: PECAPJ15; test: High Throughput Screen for growth inhibition, PECAPJ15; type: cell-based; conditions: PECAPJ15, Head and Neck; 3 days; unit not given
Method: as §1, §2, §3

Row | SMILES | pEC50 [1] | Growth Inhibition (GI) Values [2] | Growth Inhibition (GI) Values [3] | Growth Inhibition (GI) Values [4] | Growth Inhibition (GI) Values [5] | Growth Inhibition (GI) Values [6] | Growth Inhibition (GI) Values [7] | Growth Inhibition (GI) Values [8] | Growth Inhibition (GI) Values [9] | Growth Inhibition (GI) Values [10] | Growth Inhibition (GI) Values [11] | Growth Inhibition (GI) Values [12] | Growth Inhibition (GI) Values [13] | Growth Inhibition (GI) Values [14] | Growth Inhibition (GI) Values [15] | Growth Inhibition (GI) Values [16] | Growth Inhibition (GI) Values [17] | Growth Inhibition (GI) Values [18]
1 | Nc1ccn([C@@H]2O[C@H](CO)[C@@H](O)C2(F)F)c(=O)n1 [gemcitabine] | > 6.00 |  |  |  |  |  |  |  |  |  |  |  |  |  |  |  |  | 
2 | CN(Cc1ccc(C(F)(F)F)cc1)c1ccc(CNC2CC2)cn1 [TR-YTH-10] |  | 25.341 | 28.024 | 12.966 | 24.642 | 22.531 | 24.266 | 21.842 | 20.311 | 23.158 | 25.275 | 21.453 | 14.304 | 10.784 | 56.597 | 24.437 | 37.217 | 44.646
